Consider 38 molecules from US20110275673A1, “INHIBITORS OF SPHINGOSINE KINASE 1” (priority 2008, published 2011).

As usually defined, the pIC50 is −log10 of the IC50, conventionally taken in molar units.

The target in this assay is T1, SPHK-1 (Homo sapiens, UniProt Q9NYA1).
T1 construct: purchased BPS Bioscience
In words: Reporter Assay: sphingosine kinase conversion of fluorescein-labeled sphingosine, read on Lab Chip 3000. Type of assay: biochemical. The settings on record: 2 μM Fl-sphingosine, 25 μM ATP, 300 ng/ml SK1, 1 hour at room temperature; from percent conversion of substrate to product; read-out: SPHK-1 IC50 (n =). As for the experimental part: Sphingosine kinase is a 49 kDa enzyme that catalyzes the formation of sphingosine-1-phosphate (S-1-P) from sphingosine.
Fluorescein labeled sphingosine was obtained from Echelon Biosciences (S-100F). Buffer reagents (1 M Hepes, 10 triton x-100, 100% glycerol, dithiothreitol 1 M MgCl2, ATP, 500 mM EDTA and DMSO) were purchased from Sigma. Coating reagent (CR-3), was obtained from Caliper Life Sciences.
0.05% Triton X-100, 2.5% glycerol, 0.1% CR-3, and 0,6% DMSO. Termination butler included 100 mM Hepes (pH 7.5), 40 mM EDTA, 0.05% Triton X-100, 2.5% glycerol, 0.3% CR-3, and 0.6% DMSO.
All assay components were made in reaction buffer. […] The assaylvas allowed to incubate at room temperature sealed and protected from light for 1 hour.
After 1 hour, 10 μl of termination buffer was added to terminate, the reaction, and the plate was read on a Lab Chip 3000. The plate was read for one cycle. The Lab Chip separated substrate and product based on charge.
Results were calculated based on percent conversion of substrate to product using the following formula: […]
Percent inhibition and IC50's for compounds of the invention were determined using the percent conversion values obtained horn the Lab Chip.
For orientation: In a reporter assay the amount or activity of a reporter protein is the signal.

pIC50: −log10 of the molar value. Counter-ions that a name gives are not always drawn.

T1 sequence (Q9NYA1 whole entry): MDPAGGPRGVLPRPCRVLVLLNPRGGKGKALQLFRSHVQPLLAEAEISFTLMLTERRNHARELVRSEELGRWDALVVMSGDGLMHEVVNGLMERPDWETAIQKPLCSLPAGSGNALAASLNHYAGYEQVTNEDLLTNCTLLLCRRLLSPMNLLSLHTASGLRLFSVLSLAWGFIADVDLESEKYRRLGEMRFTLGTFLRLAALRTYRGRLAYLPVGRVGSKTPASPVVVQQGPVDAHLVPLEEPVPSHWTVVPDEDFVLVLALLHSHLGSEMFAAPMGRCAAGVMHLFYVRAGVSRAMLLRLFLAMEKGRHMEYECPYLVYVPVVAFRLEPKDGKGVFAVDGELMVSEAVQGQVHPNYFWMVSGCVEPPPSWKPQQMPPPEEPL

On to `CCCCCCC(O)CCCc1ccc(NC(=O)[C@@H](N)[C@@H](C)O)cc1` (stereo partly drawn) [Example 35, (2S,3R)-2-amino-3-hydroxy-N-(4-(4-hydroxydecyl)phenyl) butanamide], for which the pIC50 is 5.16.

`CCCCCCCCc1ccc(NC(=O)[C@@H](N)[C@@H](C)O)cc1` [Example 29, (2S,3R)-2-Amino-3-hydroxy-N-(4-octylphenyl) butanamide]: the pIC50 was 6.06.

`CCCCCCCCc1cc2cc(CNC(=O)[C@H]3NCC[C@@H]3O)ccc2[nH]1` [Example 108, (2S,3S)-3-Hydroxy-N-((2-octyl-1H-indol-5-yl)methyl)pyrrolidine-2-carboxamide]: the pIC50 was 5.03.

In the case of `CCCCCCCCc1cc2cc(CNC(=O)[C@H]3NCC[C@@H]3O)ccc2n1C` [Example 109, (2S,3S)-3-Hydroxy-N-((1-methyl-2-octyl-1H-indol-5-yl)methyl)pyrrolidine-2-carboxamide], the pIC50 was 6.52.

As for `CCCCCCCc1nc(-c2ccc3c(c2)CC[C@@H]3NC(=O)[C@H]2NCC[C@@H]2O)no1` [Example 62, (2S,3S)—N—((S)-5-(5-heptyl-1,2,3-oxadiazol-3-yl)-2,3-dihydro-1H-inden-1-yl)-3-hydroxypyrrolidine-2-carboxamide], the pIC50 is 7.22.

With `CCCCCCCOc1ccc(NC(=O)[C@@H](N)[C@@H](C)O)cc1` [Example 12, (2S,3R)-2-Amino-N-(4-(heptyloxy)phenyl)-3-hydroxy-butanamide], the pIC50 was 5.82.

With `CCCCCCCCc1ccc(NC(=O)[C@H]([C@H](C)O)N(CCC)CCC)cc1` [Example 47, (2S,3S)-2-(dipropyl-amino)-3-hydroxy-N-(4-octylphenyl) butanamide], the negative logarithm of the IC50 (pIC50) is less than 6.00.

For `CCCCCCCc1nc(-c2ccc(CNC(=O)[C@@H](N)CCO)cc2)no1` [Example 83, (S)-2-Amino-N-(4-(5-heptyl-1,2,4-oxadiazol-3-yl)benzyl)-4-hydroxybutanamide], the pIC50 was 6.22.

In the case of `O=C(NCc1ccc2oc(CCC3CCCCC3)cc2c1)[C@H]1NCC[C@@H]1O` [Example 117, (2S,3S)—N-((2-(2-Cyclohexylethyl)benzofuran-5-yl)-methyl)-3-hydroxypyrrolidine-2-carboxamide], the pIC50 is 6.37.

As for `CCCCCCCCc1ccc(NC[C@H]2NCC[C@@H]2O)cc1` [Example 9, (2R,3S)-2-((4-Octylphenyl-amino)methyl) pyrrolidin-3-ol], the pIC50 was 6.13.

`CCCCCCOCc1ccc(NC(=O)[C@@H](N)[C@@H](C)O)cc1` [Example 15, (2S,3R)-2-Amino-N-(4-(hexyloxymethyl)phenyl)-3-hydroxy-butanamide]: the pIC50 is 5.09.

Turning to `CCCCCCCCc1cc2cc(CNC(=O)[C@H]3NCC[C@@H]3O)cc(F)c2o1` [Example 118, (2S,3S)—N-((7-Fluoro-2-octylbenzofuran-5-yl)methyl)-3-hydroxypyrrolidine-2-carboxamide], the pIC50 is 6.34.

Turning to `CC[C@H](NC(=O)[C@H]1NCC[C@@H]1O)c1ccc(-c2noc(C3CCCCC3)n2)cc1` [Example 99, (2S,3S)—N—((S)-1-(4-(5-Cyclohexyl-1,2,4-oxadiazol-3-yl)phenyl)propyl)-3-hydroxypyrrolidine-2-carboxamide hemi-tartrate salt], the pIC50 is 6.89.

On to `CCCCCCCCCCc1ccc(NC(=O)[C@H]2NCCC[C@H]2O)cc1` (relative stereo) [Example 45, cis-N-(4-decylphenyl)-3-hydroxy-piperidine-2-carboxamide], for which the pIC50 is less than 5.00.

Consider `C[C@@H](O)[C@H](N)C(=O)Nc1ccc(CCCCCOc2ccc(F)cc2)cc1` [Example 22, (2S,3R)-2-Amino-N-(4-(5-(4-fluorophenoxy)pentyl)phenyl)-3-hydroxy-butanamide], for which the pIC50 was 5.49.

As for `CCCCCCCCCCc1ccc(NC(=O)[C@H]2C[C@H](O)CCN2)cc1` [Example 123, (2R,4R)—N-(4-decylphenyl)-4-hydroxypiperidine-2-carboxamide], the pIC50 is 5.01.

In the case of `CCCCCCCc1cc2cc(CNC(=O)[C@H]3NCC[C@@H]3O)ccc2o1` [Example 113, (2S,3S)—N-((2-Heptylbenzofuran-5-yl)methyl)-3-hydroxypyrrolidine-2-carboxamide], the pIC50 is 6.80.

In the case of `CCCCCCCCCCc1ccc(NC(=O)[C@@H]2C[C@@H](O)CCN2)cc1` [Example 124, (2S,4S)—N-(4-decylphenyl)-4-hydroxypiperidine-2-carboxamide], the pIC50 was 5.57.

As for `CCCCCCCCc1cnc(-c2ccc(CNC(=O)[C@H]3NCC[C@@H]3O)cc2)s1` [Example 106, (2S,3S)-3-hydroxy-N-(4-(5-octylthiazol-2-yl)benzyl)pyrrolidine-2-carboxamide], the pIC50 was 7.15.

With `O=C(NCc1ccc(-n2cc(CCC3CCCCC3)nn2)cc1)[C@H]1NCC[C@@H]1O` [Example 67, (2S,3S)-(4-(4-(2-Cyclohexylethyl)-1H-1,2,3-triazol-1-yl)benzyl)-3-hydroxypyrrolidine-2-carboxamide], the pIC50 was 6.54.

For the molecule `CCCCCCCSCc1ccc(CNC(=O)[C@H]2NCC[C@@H]2O)cc1` [Example 43, (2S,3S)-N-(4-(heptylthio-methyl)benzyl)-3-hydroxy-pyrrolidine-2-carboxamide], the negative-log IC50 (pIC50) was 6.74.

Regarding `C[C@H](NC(=O)[C@H]1NCC[C@@H]1O)c1ccc(-c2noc(CCC3CCC3)n2)cc1` [Example 100, (2S,3S)—N—((S)-1-(4-(5-(2-Cyclobutylethyl)-1,2,4-oxadiazol-3-yl)phenyl)ethyl)-3-hydroxypyrrolidine-2-carboxamide hemi tartrate salt], the pIC50 is 7.23.

`CCCCCCCCc1cc2cc(CNC(=O)[C@H]3NCC[C@@H]3O)c(F)cc2o1` [Example 119, (2S,3S)—N-((6-Fluoro-2-octylbenzofuran-5-yl)methyl)-3-hydroxypyrrolidine-2-carboxamide]: the pIC50 is 6.15.

For the molecule `CCCc1ccc(-c2nc(-c3ccc(CNC(=O)[C@H]4NCC[C@@H]4O)cc3)no2)cc1` [Example 81, (2S,3S)-3-Hydroxy-N-(4-(5-(4-propylphenyl)-1,2,4-oxadiazol-3-yl)benzyl)pyrrolidine-2-carboxamide], the pIC50 is 5.74.

Turning to `Cn1nc(-c2ccc(CNC(=O)[C@H]3NCC[C@@H]3O)cc2)nc1C1CCCCC1` [Example 63, (2S,3S)—N-(4-(5-Cyclohexyl-1-methyl-1H-1,2,4-triazol-3-yl)benzyl)-3-hydroxypyrrolidine-2-carboxamide], the pIC50 is 5.68.

With `CCCCCCCCc1ccc(NC(=O)[C@H]2NC[C@H](O)[C@@H]2O)cc1` [Example 20, (2S,3R,4S)-3,4-Dihydroxy-N-(4-octylphenyl) pyrrolidine-2-carboxamide], the pIC50 was 5.08.

Consider `O=C(NCc1ccc(CCCCCOc2ccc(F)cc2)cc1)[C@H]1NCC[C@@H]1O` [Example 28, (2S,3S)-N-(4-(5-(4-Fluorophenoxy)pentyl)benzyl)-3-hydroxy-pyrrolidine-2-carboxamide], for which the pIC50 is 5.33.

Regarding `CCCCCCCc1nc(-c2ccc3c(c2)CC[C@H]3NC(=O)[C@H]2NCC[C@@H]2O)no1` [Example 61], the pIC50 is 5.16.

For the molecule `CCCCCCCCc1ccc(CNC(=O)[C@H]2NCC[C@@H]2O)cc1` [Example 36, (2S,3S)-3-hydroxy-N-(4-octylbenzyl) pyrrolidine-2-carboxamide], the pIC50 is 5.68.

`CCCCCCCCCc1ccc(NC(=O)C(N)CO)cc1` (racemic) [Example 13, (+/−)-2-Amino-3-hydroxy-N-(4-nonylphenyl) propanamide]: the pIC50 was 5.42.

Turning to `CCCCCCSCCc1ccc(NC(=O)[C@H]2NCC[C@@H]2O)cc1` [Example 40, (2S,3S)-N-(4-(2-(hexylthio)ethyl)phenyl)-3-hydroxy-pyrrolidine-2-carboxamide], the pIC50 is 8.15.

As for `CCCCCCCCc1ccc(NC(=O)[C@H]2NCC[C@@H]2O)cn1` [Example 26, (2S,3S)-3-Hydroxy-N-(6-octylpyridin-3-yl) pyrrolidine-2-carboxamide], the pIC50 is 5.52.

On to `O=C(NCc1ccc(-c2noc(C3CCC(F)(F)CC3)n2)cc1)[C@H]1NCC[C@@H]1O` [Example 92, (2S,3S)—N-(4-(5-(4,4-Difluorocyclohexyl)-1,2,4-oxadiazol-3-yl)benzyl)-3-hydroxypyrrolidine-2-carboxamide], for which the pIC50 is 5.19.

Consider `O=C(NCc1ccc(-n2cc(CCc3ccccc3)nn2)cc1)[C@H]1NCC[C@@H]1O` [Example 65, (2S,3S)-3-Hydroxy-N-(4-(4-phenethyl-1H-1,2,3-triazol-1-yl)benzyl)pyrrolidine-2-carboxamide], for which the pIC50 was 5.80.

As for `CCCCCCCCc1ccc(NC(=O)[C@H](N)CO)cc1` [Example 3, (R)-2-Amino-3-hydroxy-N-(4-octylphenyl) propanamide], the pIC50 was 5.30.

For the molecule `CCCCCCCCc1cccc(NC(=O)[C@@H](N)[C@@H](C)O)c1` [Example 11, (2S,3R)-2-Amino-3-hydroxy-N-(3-octylphenyl) butanamide], the pIC50 was 5.54.

`CCCCCCCCc1ccc(NC(=O)[C@H](N)[C@@H](C)O)cc1` [Example 31, (2R,3R)-2-Amino-3-hydroxy-N-(4-octylphenyl) butanamide]: the pIC50 was 5.80.

In the case of `CCCCC(=O)CCCCCc1ccc(NC(=O)[C@H]2NCC[C@@H]2O)cc1` [Example 38, (2S,3S)-3-hydroxy-N-(4-(6-oxodecyl)phenyl) pyrrolidine-2-carboxamide], the pIC50 was 7.07.
